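These data come from cells grown in 96-well plates and exposed to compound for 48 hours at five concentrations. GI50 is the concentration that inhibits growth by half.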 The source made the active and inactive calls. No stated cut-off is given here; in the data, active = GI50 up to about 1.1 µM and inactive = higher.
Tests used:
Assay in all cases: NCI tumour cell line growth inhibition, 48 h
SNB-75 = test system: SNB-75
OVCAR-3 = test system: OVCAR-3
OVCAR-5 = test system: OVCAR-5
K562 = test system: K562
UO-31 = test system: UO-31
NCI-H226 = test system: NCI-H226
HL-60 = test system: HL-60
T47D = test system: T47D
CAKI-1 = test system: CAKI-1
HCT-15 = test system: HCT-15
SR = test system: SR
MDA-MB-231 = test system: MDA-MB-231
CCRF-CEM = test system: CCRF-CEM
MOLT-4 = test system: MOLT-4
LOX IMVI = test system: LOX IMVI
Malme-3M = test system: Malme-3M
SW-620 = test system: SW-620
A498 = test system: A498
UACC-257 = test system: UACC-257
IGROV-1 = test system: IGROV-1

| SMILES | GI50 (SNB-75) | GI50 (OVCAR-3) | GI50 (OVCAR-5) | GI50 (K562) | GI50 (UO-31) | GI50 (NCI-H226) | GI50 (HL-60) | GI50 (T47D) | GI50 (CAKI-1) | GI50 (HCT-15) [µM] | GI50 (SR) | GI50 (MDA-MB-231) | GI50 (CCRF-CEM) | GI50 (MOLT-4) | GI50 (LOX IMVI) | GI50 (Malme-3M) | GI50 (SW-620) | GI50 (A498) | GI50 (UACC-257) | GI50 (IGROV-1) |
| --- | --- | --- | --- | --- | --- | --- | --- | --- | --- | --- | --- | --- | --- | --- | --- | --- | --- | --- | --- | --- |
| C=CC(C)(C)NC(C(=O)N1CCC[C@H]1c1nc(-c2nc(C(=O)OCC=C(C)C)c(C)o2)c(C)o1)C(C)C (stereo not given in full) | 33.3 µM (inactive) | 46.6 µM (inactive) | > 76 µM (inactive) | > 60.7 µM (inactive) | 21.8 µM (inactive) | > 48.8 µM (inactive) | 17.1 µM (inactive) | 74.8 µM (inactive) | > 55.2 µM (inactive) | > 52.1 | 32.2 µM (inactive) | 47 µM (inactive) | > 59.7 µM (inactive) | 47.5 µM (inactive) | > 49.2 µM (inactive) | > 100 µM (inactive) | 45.8 µM (inactive) | 47.1 µM (inactive) | > 58.7 µM (inactive) | 52.1 µM (inactive) |
| CCOC(=O)/C=C(/C(=O)OCC)n1cc(C)c(=O)n(/C(=C/C(=O)OCC)C(=O)OCC)c1=O | 9.73 µM (inactive) | 2.79 µM (inactive) | 6.62 µM (inactive) | 1.58 µM (inactive) | 5.31 µM (inactive) | 6.01 µM (inactive) | 0.255 µM (active) | 2.64 µM (inactive) | 0.887 µM (active) | 1.56 | 1.89 µM (inactive) | 3.4 µM (inactive) | 0.354 µM (active) | 1.32 µM (inactive) | 1.74 µM (inactive) | 1.85 µM (inactive) | 1.22 µM (inactive) | 19.8 µM (inactive) | 4.9 µM (inactive) | 4.75 µM (inactive) |
| O=C1C=CC(=O)C(N(CCO)CCO)=C1.O=C1C=CC2(O)OCCN(CCO)C2=C1 | > 100 µM (inactive) | > 100 µM (inactive) | > 100 µM (inactive) | > 100 µM (inactive) | > 100 µM (inactive) | > 100 µM (inactive) | > 100 µM (inactive) | > 100 µM (inactive) | > 100 µM (inactive) | > 100 | 34.8 µM (inactive) | > 100 µM (inactive) | > 100 µM (inactive) | > 100 µM (inactive) | > 100 µM (inactive) | > 100 µM (inactive) | > 100 µM (inactive) | > 100 µM (inactive) | > 100 µM (inactive) | > 100 µM (inactive) |
